The numbers were not newly measured in patent US20240148714A1, “Triple Negative Breast Cancer Treatment Method” (Exelixis, Inc., priority 2016, published 2024), which cites them from elsewhere.

The data set deals with mTNBC. Conditions: bevacizumab and onartuzumab combined, with paclitaxel; mTNBC patients without previous paclitaxel for metastatic disease; cited from earlier work.

In the case of onartuzumab, the clinical benefit entry is on record as “no clinical benefit”.
Take bevacizumab: the clinical benefit result is “no clinical benefit”.
